{"source": "patent US12383629B2", "about": "“DNA-affibody-drug nanoparticles for inhibiting the metastasis of cancer cells overexpressing HER2” (Arizona Board of Regents on behalf of Arizona State …, priority 2019, dated 2025)", "test_system": "HER2 receptor", "experiment": "Western blot assay for HER2 targeting", "type": "cell-based", "details": "BT474, 1 h; 1 μM DOX, 0.02 μM III, 1 μM Herceptin", "procedure": "Western Blot Analysis—BT474 cells (50,000 cells/mL) were seeded in a 6-well cell culture plate and incubated in 1 mL of Gibco® RPMI 1640 medium supplemented with 10% fetal bovine serum (FBS) and 1% antibiotic-antimycotic mix antibiotic supplement at 37° C. for 24 h in a 5% CO2 atmosphere. […] The cells were washed with 1 mL 1×PBS buffer, and treated with 150 μL Cellstripper® non-enzymatic cell dissociation solution. After centrifugation at 500×g for 3 min, the cell pellets were washed with 150 μL 1×PBS buffer and treated with 60 μL, of 1×RIPA lysis buffer containing protease and phosphatase inhibitor cocktail (Sigma-Aldrich). After three cycle of freeze, thaw and sonication following by centrifugation at 15,000×g for 2 min at 4° C., the clear supernatant was collected.\nTotal protein concentration was measured using a BCA kit (Thermo Fisher Scientific). NuPAGE LDS Sample Buffer (4×) and NuPAGE Reducing Agent (10×) was added to the lysate which was denatured at 70° C. for 5 min. Equal amounts of lysates (25 μg) were loaded on a 4%-12% SDS-polyacrylamide Bis-Tris gels (Invitrogen) according to the manufacturer's recommendations and then proteins were transferred to nitrocellulose membranes. […]"}
{"smiles": "COc1cccc2c1C(=O)c1c(O)c3c(c(O)c1C2=O)C[C@@](O)(C(=O)CO)C[C@@H]3O[C@H]1C[C@H](N)[C@H](O)[C@H](C)O1", "note": "[DOX, doxorubicin]", "values": [{"measurement": "level of phosphorylated HER2 (Y1221/1222)", "value": "did not change"}]}
